Assays:
[1] = system: patient-derived organoids (PDOs) from a lung cancer patient's metastatic tumor; assay: Patient-derived organoid viability (CellTiter Glo); format: cell-based, human; set-up: viability of PDO: dose or concentration left out as unconfirmed; conditions: 72 h
Experimental: FIG. 1A is a bar graph showing the IC50 values of AGB against indicated cell lines. Cells were treated with AGB at various concentrations for 48 h and processed for MTT assay. The IC50 values were half maximal inhibitory concentration that determined by the fitting curve using the equation from GraphPad Prism 8. FIG. 1B is a bar graph showing the inhibition of colony formation on NCI-H460 cells by AGB. Cells were treated with indicated concentrations of AGB for 8 h. Medium with AGB was then aspirated and cells were re-seeded into a new 12-well cell culture plate. After 14 days, cells were fixed by ethanol followed by staining using crystal violet. Colony numbers were counted and normalized to vehicle control group. Colonies with more than 50 cells were considered. **, p<0.01; ***, p<0.001. […] The numbers of formed tumorsphere were calculated and normalized to the control group of primary passage. […] FIG. 1E is a graph showing the cell viability of CSCs determined by MTT assay. The absorbance of each well was normalized to control wells and data were shown as percentage of cell viabilities. […]
To better simulate the physiological structure and function of in situ tissue, the effect of AGB on the growth of patient-derived organoids (PDOs) isolated from a lung cancer patient's metastatic tumor was evaluated.

NCI-H460 cells = assay: Cell colony formation (clonogenic) assay; format: cell-based, human
Experimental: For the colony formation assay, cells were treated with indicated concentrations of AGB for 8 h, then AGB was then removed and 200 cells were trypsinized and seeded into a new 12-well cell culture plate containing 1.5 ml of complete cell growth medium. After cells were grown for 14 days, cells were then fixed with ethanol followed a staining by crystal violet (0.05%, w/v, in water) for 15 min. The cell colonies were captured under the microscope and the number of colonies was calculated by ImageJ (version 1.50i, NIH, USA, internet site imagej.nih.gov).

CS [2] = target: T1, CS (Homo sapiens, UniProt O75390); assay: CS catalytic activity; format: biochemical; conditions: dose-dependent
T1 sequence (O75390 28-466): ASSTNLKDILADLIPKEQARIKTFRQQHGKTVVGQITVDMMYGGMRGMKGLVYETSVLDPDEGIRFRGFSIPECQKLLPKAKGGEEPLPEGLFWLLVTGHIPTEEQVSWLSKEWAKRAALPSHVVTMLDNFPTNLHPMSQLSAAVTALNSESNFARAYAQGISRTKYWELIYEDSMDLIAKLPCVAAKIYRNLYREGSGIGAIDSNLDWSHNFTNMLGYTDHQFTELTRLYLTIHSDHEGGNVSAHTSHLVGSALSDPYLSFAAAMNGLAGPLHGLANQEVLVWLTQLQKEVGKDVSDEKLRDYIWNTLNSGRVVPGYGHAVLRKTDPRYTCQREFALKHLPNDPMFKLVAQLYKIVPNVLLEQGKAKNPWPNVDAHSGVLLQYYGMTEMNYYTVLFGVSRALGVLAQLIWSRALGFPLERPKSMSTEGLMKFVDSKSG
Source text: CS is localized within the mitochondrial matrix and is the key enzyme in the first step of the tricarboxylic acid (TCA) cycle that catalyzes the reaction between acetyl coenzyme A (acetyl CoA) and oxaloacetic acid to form citric acid. […] CS is responsible for the production of citrate in the TCA cycle that mediates mitochondrial aerobic respiration to affect the production of ATP production. Targeting at CS may be feasible to restore the abnormal expression of TCA cycle.

CS [3] = target: T1, CS; assay: Tryptophan fluorescence quenching assay; format: binding
Experimental: FIG. 5A is a volcano plot (ΔTm, p-value) for TPP data obtained from NCI-H460 cells with 4 μM AGB treatment for 1 h. The criteria were set as ΔTm>2° C. and p<0.05. FIG. 5B is a graph showing results of the tryptophan fluorescence quenching assay for the direct interaction between AGB and three target proteins. Upper, tryptophan fluorescence titration of recombinant proteins with AGB. […] For CS, its fluorescence decrease was saturated when AGB concentrations increased to about 32 μM. Lower, the normalized tryptophan intensities at an emission of 320 nm were plotted as a function of total added concentration of AGB. The dissociation constants (Kd) between AGB and three proteins were then calculated by fitting this plot with Stern-Volmer Equation. […] The fluorescence intensity was presented as percentage relative to control groups. […]
To further examine whether AGB interacts directly with the above three identified proteins, the intrinsic tryptophan fluorescence properties of these proteins were examined in the presence of AGB at different concentrations. Upon binding with AGB, proteins experience a change of the tryptophan environment, which can be visualized by fluorescence spectroscopy. As shown in FIG. 5B the tryptophan fluorescence of three proteins were all quenched by AGB in a concentration-dependent manner.

A549 xenograft = assay: Human tumor xenograft model; format: in vivo, nude mice; conditions: AGB 3 mg/kg, tail intravenous injection

CCCC(=O)c1c(O)c(Cc2c(O)c(Cc3c(O)c(C)c(OC)c(C(=O)CCC)c3O)c(O)c(C(=O)[C@@H](C)CC)c2O)c(O)c(C)c1OC [AGB, Agrimol B]
viability of PDO ([1]; AGB, concentration dependent): Significant inhibition of viability
maximal viability loss ([1]; PDO): over 99%
AGB concentration over which colonies numbers were significantly reduced (NCI-H460 cells; 8 h treatment, colonies counted after two weeks): over 2.5 μM
concentration giving significant reduction of cell colony formation (NCI-H460 cells; clonogenicity assay): around 4 μM
AGB concentration at which a significant decrease in the enzyme activity was observed (CS [2]): 5 µM
Kd (CS [3]; Stern-Volmer analysis, read-out: Kd of AGB binding to CS): 4.9 µM
AGB concentration at which the CS fluorescence decrease was saturated (CS [3]; tryptophan fluorescence titration): about 32 μM
tumor growth inhibition rate (A549 xenograft): 60%

— US20250162973A1, “METHODS OF SYNTHESIS AND USES OF AGRIMOL COMPOUNDS” (Versitech Limited, priority 2022, published 2025)
